From ChEMBL document CHEMBL2146405, “Isomalyngamide A, A-1 and their analogs suppress cancer cell migration in vitro” (Eur J Med Chem, 2011)
Active and inactive are the calls of the source. The calls are words filed in the database; no cut-off is given here.

What was measured:
MCF7 [1] = experiment: Antiproliferative activity against human MCF7 cells at 20 uM after 48 hrs by MTT assay; format: functional; conditions: MCF7, 48 h
MDA-MB-231 [2] = experiment: cells; conditions: Homo sapiens, MDA-MB-231, 16 h
Description: Antimetastatic activity in human MDA-MB-231 cells assessed as inhibition of serum-induced cellular migration after 16 hrs by Boyden chamber assay

MDA-MB-231 [3] = experiment: Antiproliferative activity against human MDA-MB-231 cells assessed as reduction in cell viability at 50 uM after 48 hrs by MTT assay; format: functional, cell-based
[4] = Inhibition of rat liver alpha 2,3-sialyltransferase
MDA-MB-231 [5] = experiment: Antiproliferative activity against human MDA-MB-231 cells at 20 uM after 48 hrs by MTT assay; format: functional; conditions: MDA-MB-231, 48 h
MDA-MB-231 [6] = experiment: Antimetastatic activity in human MDA-MB-231 cells assessed as inhibition of serum-induced cellular migration at 150 nM after 24 hrs by wound healing assay; format: functional, cell-based
MCF7 [7] = experiment: Antiproliferative activity against human MCF7 cells after 48 hrs by MTT assay; format: functional, cell-based; conditions: MCF7, 48 h
MDA-MB-231 [8] = experiment: Antiproliferative activity against human MDA-MB-231 cells after 48 hrs by MTT assay; format: functional, cell-based; conditions: MDA-MB-231, 48 h
MDA-MB-231 [9] = experiment: Antimetastatic activity in human MDA-MB-231 cells assessed as inhibition of cell migration-associated wound closure at 150 nM after 24 hrs of scratching by wound-healing assay; format: functional, cell-based
Rattus norvegicus = species: Rattus norvegicus; experiment: Inhibition of rat liver alpha 2,3-sialyltransferase at 100 uM
[10] = Solubility of compound at 10 uM; format: physicochemical
[11] = target: Integrin beta-1 (Homo sapiens) (UniProt P05556); experiment: Inhibition of beta1-integrin in human MDA-MB-231 cells assessed as Akt protein level after 2 hrs by Western blot analysis; format: cell-based
Integrin beta-1 (Homo sapiens), sequence (P05556 whole entry): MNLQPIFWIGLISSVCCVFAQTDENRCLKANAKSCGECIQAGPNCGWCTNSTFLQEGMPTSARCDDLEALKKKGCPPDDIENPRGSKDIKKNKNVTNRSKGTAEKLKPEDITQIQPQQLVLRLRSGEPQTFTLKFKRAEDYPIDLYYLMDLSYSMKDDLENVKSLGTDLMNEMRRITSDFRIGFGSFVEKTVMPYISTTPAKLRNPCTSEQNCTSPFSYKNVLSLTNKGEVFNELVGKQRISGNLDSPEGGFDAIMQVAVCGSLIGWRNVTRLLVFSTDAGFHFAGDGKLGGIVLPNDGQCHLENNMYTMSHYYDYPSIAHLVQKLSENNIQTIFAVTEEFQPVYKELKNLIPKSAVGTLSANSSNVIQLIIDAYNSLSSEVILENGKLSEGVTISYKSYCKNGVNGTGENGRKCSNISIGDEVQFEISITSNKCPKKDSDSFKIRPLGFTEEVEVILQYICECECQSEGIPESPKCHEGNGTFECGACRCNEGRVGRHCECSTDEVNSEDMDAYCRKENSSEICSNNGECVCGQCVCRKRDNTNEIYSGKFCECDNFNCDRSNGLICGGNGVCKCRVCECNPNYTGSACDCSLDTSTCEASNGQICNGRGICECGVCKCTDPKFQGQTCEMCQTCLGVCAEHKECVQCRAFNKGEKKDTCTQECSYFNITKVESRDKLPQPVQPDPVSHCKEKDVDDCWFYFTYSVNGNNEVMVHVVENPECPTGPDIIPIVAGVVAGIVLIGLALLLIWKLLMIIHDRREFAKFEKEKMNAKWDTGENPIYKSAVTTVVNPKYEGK

[12] = target: Integrin beta-1 (Homo sapiens) (UniProt P05556); experiment: Inhibition of beta1-integrin in human MDA-MB-231 cells assessed as FAK protein level after 2 hrs by Western blot analysis; format: cell-based
[13] = target: Integrin beta-1 (Homo sapiens) (UniProt P05556); experiment: Inhibition of beta1-integrin in human MDA-MB-231 cells after 2 hrs by Western blot analysis; format: cell-based
[14] = target: Integrin beta-1 (Homo sapiens) (UniProt P05556); experiment: Inhibition of beta1-integrin in human MDA-MB-231 cells assessed as FAK phosphorylation at Tyr576/Tyr577 after 2 hrs by Western blot analysis; format: cell-based
[15] = target: Integrin beta-1 (Homo sapiens) (UniProt P05556); experiment: Inhibition of beta1-integrin in human MDA-MB-231 cells assessed as Akt phosphorylation at Ser473 after 2 hrs by Western blot analysis; format: cell-based

CCCCCCCCCCCCCC(=O)NCCNC(=O)C(C)(C)C(=O)NCC(=O)O
inhibition at 20 µM (MCF7 [1]): 7% | IC50 (MDA-MB-231 [2]): 22.7 µM | Activity (MDA-MB-231 [3]): inactive | IC50 [4]: 37 µM | inhibition at 20 µM (MDA-MB-231 [5]): 0%

CCCCCCC[C@@H](C/C=C/CCC(=O)N(C)C/C(=C\Cl)C/C(=C\C(=O)N1CC(OC)=CC1=O)OC)OC [ISOMALYNGAMIDE A]
Activity (MDA-MB-231 [6]): Active | IC50 (MCF7 [7]): 4.6 µM | IC50 (MDA-MB-231 [8]): 2.8 µM | IC50 (MDA-MB-231 [2]): 0.06 µM | Activity (MDA-MB-231 [9]): Active | IC50 [4]: 77.2 µM

COC1=CC(=O)NC1
inhibition at 20 µM (MCF7 [1]): 2% | inhibition (Rattus norvegicus): inactive | inhibition at 20 µM (MDA-MB-231 [5]): 3%

CCCCCCCCCCCCCC(=O)N1CC(OC)=CC1=O
solubility [10]: Insoluble

CCCCCCCCCCCCCC(=O)NCCNC(=O)C(C)(C)C(=O)N1CC(=O)CC1=O
inhibition [11]: Dose-dependent effect | inhibition [12]: Dose-dependent effect | inhibition [13]: Dose-dependent effect | inhibition [14]: Dose-dependent effect | inhibition [15]: Active
